Laboratory results as given in ChEMBL document CHEMBL1629422, “Synthesis and antimicrobial evaluation of some fused heterocyclic [1,2,4]triazolo[3,4-b][1,3,4]thiadiazole derivatives” (2010).
Values after ≈ are worked out from the molar mass of the structure shown.

Legend:
Type in all cases: functional
Staphylococcus aureus = test: Antimicrobial activity against Staphylococcus aureus ATCC 25923 after18 to 20 hrs by broth dilution method
[1] = test system: Staphylococcus epidermidis; test: Antimicrobial activity against Staphylococcus epidermidis ATCC 14990 after18 to 20 hrs by broth dilution method
Enterococcus faecalis = test: Antimicrobial activity against Enterococcus faecalis ATCC 29212 after18 to 20 hrs by broth dilution method
Bacillus cereus = test: Antimicrobial activity against Bacillus cereus ATCC 13061 after18 to 20 hrs by broth dilution method
Escherichia coli = test: Antimicrobial activity against Escherichia coli ATCC 25922 after18 to 20 hrs by broth dilution method
Enterobacter cloacae = test: Antimicrobial activity against Enterobacter cloacae ATCC 49141 after18 to 20 hrs by broth dilution method
Citrobacter freundii = test: Antimicrobial activity against Citrobacter freundii ATCC 8090 after18 to 20 hrs by broth dilution method
Acinetobacter baumannii = test: Antimicrobial activity against Acinetobacter baumannii ATCC 19606 after18 to 20 hrs by broth dilution method
Pseudomonas aeruginosa = test: Antimicrobial activity against Pseudomonas aeruginosa ATCC 27853 after18 to 20 hrs by broth dilution method
Candida albicans = test: Antimicrobial activity against Candida albicans ATCC 90028 after 48 hrs by broth dilution method; conditions: ATCC 90028, 48 h

| MIC (Staphylococcus aureus) [µg/mL] | MIC [1] [µg/mL] | MIC (Enterococcus faecalis) [µg/mL] | MIC (Bacillus cereus) [µg/mL] | MIC (Escherichia coli) [µg/mL] | MIC (Enterobacter cloacae) [µg/mL] | MIC (Citrobacter freundii) [µg/mL] | MIC (Acinetobacter baumannii) [µg/mL] | MIC (Pseudomonas aeruginosa) [µg/mL] | MIC (Candida albicans) [µg/mL] | Structure (SMILES) |
| --- | --- | --- | --- | --- | --- | --- | --- | --- | --- | --- |
| 256 (≈ 565 µM) | 512 (≈ 1130 µM) | 512 (≈ 1130 µM) | 1020 (≈ 2260 µM) | 512 (≈ 1130 µM) | 512 (≈ 1130 µM) | 512 (≈ 1130 µM) | 512 (≈ 1130 µM) | 512 (≈ 1130 µM) | 512 (≈ 1130 µM) | O=S(=O)(c1ccccc1)c1ccc(-c2nnc3sc(-c4ccc(Cl)cc4)nn23)cc1 |
| 1020 (≈ 2000 µM) | 512 (≈ 999 µM) | 1020 (≈ 2000 µM) | 1020 (≈ 2000 µM) | 256 (≈ 500 µM) | 512 (≈ 999 µM) | 1020 (≈ 2000 µM) | 512 (≈ 999 µM) | 512 (≈ 999 µM) | 1020 (≈ 2000 µM) | O=S(=O)(c1ccccc1)c1ccc(-c2nnc3sc(Nc4ccc(Br)cc4)nn23)cc1 |
| 1020 (≈ 2210 µM) | 128 (≈ 276 µM) | 64 (≈ 138 µM) | 256 (≈ 552 µM) | 256 (≈ 552 µM) | 256 (≈ 552 µM) | 256 (≈ 552 µM) | 128 (≈ 276 µM) | 256 (≈ 552 µM) | 256 (≈ 552 µM) | COc1ccc(Nc2nn3c(-c4ccc(S(=O)(=O)c5ccccc5)cc4)nnc3s2)cc1 |
| 1020 (≈ 2290 µM) | 512 (≈ 1140 µM) | 512 (≈ 1140 µM) | 1020 (≈ 2290 µM) | 256 (≈ 572 µM) | 512 (≈ 1140 µM) | 1020 (≈ 2290 µM) | 128 (≈ 286 µM) | 512 (≈ 1140 µM) | 256 (≈ 572 µM) | Cc1ccc(Nc2nn3c(-c4ccc(S(=O)(=O)c5ccccc5)cc4)nnc3s2)cc1 |
| 512 (≈ 866 µM) | 512 (≈ 866 µM) | 128 (≈ 216 µM) | 1020 (≈ 1730 µM) | 128 (≈ 216 µM) | 512 (≈ 866 µM) | 1020 (≈ 1730 µM) | 512 (≈ 866 µM) | 512 (≈ 866 µM) | 128 (≈ 216 µM) | O=S(=O)(c1ccc(Br)cc1)c1ccc(-c2nnc3sc(Nc4ccc(Br)cc4)nn23)cc1 |
| 512 (≈ 944 µM) | 128 (≈ 236 µM) | 128 (≈ 236 µM) | 1020 (≈ 1890 µM) | 256 (≈ 472 µM) | 256 (≈ 472 µM) | 256 (≈ 472 µM) | 128 (≈ 236 µM) | 256 (≈ 472 µM) | 128 (≈ 236 µM) | COc1ccc(Nc2nn3c(-c4ccc(S(=O)(=O)c5ccc(Br)cc5)cc4)nnc3s2)cc1 |
| 512 (≈ 1180 µM) | 64 (≈ 148 µM) | 128 (≈ 295 µM) | 256 (≈ 591 µM) | 256 (≈ 591 µM) | 256 (≈ 591 µM) | 256 (≈ 591 µM) | 128 (≈ 295 µM) | 256 (≈ 591 µM) | 256 (≈ 591 µM) | Nc1ccc(-c2nn3c(-c4ccc(S(=O)(=O)c5ccccc5)cc4)nnc3s2)cc1 |
| 512 (≈ 973 µM) | 1020 (≈ 1950 µM) | 512 (≈ 973 µM) | 1020 (≈ 1950 µM) | 256 (≈ 486 µM) | 512 (≈ 973 µM) | 1020 (≈ 1950 µM) | 1020 (≈ 1950 µM) | 512 (≈ 973 µM) | 128 (≈ 243 µM) | Cc1ccc(Nc2nn3c(-c4ccc(S(=O)(=O)c5ccc(Br)cc5)cc4)nnc3s2)cc1 |
| 512 (≈ 1030 µM) | 1020 (≈ 2060 µM) | 1020 (≈ 2060 µM) | 1020 (≈ 2060 µM) | 512 (≈ 1030 µM) | 512 (≈ 1030 µM) | 1020 (≈ 2060 µM) | 1020 (≈ 2060 µM) | 512 (≈ 1030 µM) | 1020 (≈ 2060 µM) | O=S(=O)(c1ccccc1)c1ccc(-c2nnc3sc(-c4ccc(Br)cc4)nn23)cc1 |
| 256 (≈ 571 µM) | 512 (≈ 1140 µM) | 512 (≈ 1140 µM) | 512 (≈ 1140 µM) | 512 (≈ 1140 µM) | 512 (≈ 1140 µM) | 512 (≈ 1140 µM) | 512 (≈ 1140 µM) | 256 (≈ 571 µM) | 512 (≈ 1140 µM) | COc1ccc(-c2nn3c(-c4ccc(S(=O)(=O)c5ccccc5)cc4)nnc3s2)cc1 |
| 512 (≈ 1140 µM) | 512 (≈ 1140 µM) | 512 (≈ 1140 µM) | 1020 (≈ 2290 µM) | 256 (≈ 572 µM) | 512 (≈ 1140 µM) | 1020 (≈ 2290 µM) | 1020 (≈ 2290 µM) | 256 (≈ 572 µM) | 512 (≈ 1140 µM) | NCc1ccc(-c2nn3c(-c4ccc(S(=O)(=O)c5ccccc5)cc4)nnc3s2)cc1 |
| 512 (≈ 1100 µM) | 512 (≈ 1100 µM) | 32 (≈ 68.6 µM) | 256 (≈ 549 µM) | 256 (≈ 549 µM) | 512 (≈ 1100 µM) | 1020 (≈ 2200 µM) | 1020 (≈ 2200 µM) | 128 (≈ 274 µM) | 512 (≈ 1100 µM) | O=S(=O)(c1ccccc1)c1ccc(-c2nnc3sc(-c4cc(O)c(O)c(O)c4)nn23)cc1 |
| 256 (≈ 481 µM) | 128 (≈ 241 µM) | 128 (≈ 241 µM) | 256 (≈ 481 µM) | 128 (≈ 241 µM) | 512 (≈ 963 µM) | 1020 (≈ 1930 µM) | 256 (≈ 481 µM) | 128 (≈ 241 µM) | 512 (≈ 963 µM) | O=S(=O)(c1ccccc1)c1ccc(-c2nnc3sc(-c4ccc(Cl)c(Br)c4)nn23)cc1 |
| 256 (≈ 444 µM) | 64 (≈ 111 µM) | 128 (≈ 222 µM) | 1020 (≈ 1780 µM) | 256 (≈ 444 µM) | 256 (≈ 444 µM) | 128 (≈ 222 µM) | 256 (≈ 444 µM) | 256 (≈ 444 µM) | 128 (≈ 222 µM) | O=S(=O)(c1ccc(Br)cc1)c1ccc(-c2nnc3sc(-c4ccc(Br)cc4)nn23)cc1 |
| 128 (≈ 241 µM) | 128 (≈ 241 µM) | 64 (≈ 120 µM) | 256 (≈ 481 µM) | 128 (≈ 241 µM) | 512 (≈ 963 µM) | 512 (≈ 963 µM) | 256 (≈ 481 µM) | 512 (≈ 963 µM) | 1020 (≈ 1930 µM) | O=S(=O)(c1ccc(Br)cc1)c1ccc(-c2nnc3sc(-c4ccc(Cl)cc4)nn23)cc1 |
| 128 (≈ 243 µM) | 512 (≈ 971 µM) | 512 (≈ 971 µM) | 256 (≈ 485 µM) | 256 (≈ 485 µM) | 1020 (≈ 1940 µM) | 512 (≈ 971 µM) | 256 (≈ 485 µM) | 512 (≈ 971 µM) | 512 (≈ 971 µM) | COc1ccc(-c2nn3c(-c4ccc(S(=O)(=O)c5ccc(Br)cc5)cc4)nnc3s2)cc1 |
| 256 (≈ 500 µM) | 512 (≈ 999 µM) | 512 (≈ 999 µM) | 128 (≈ 250 µM) | 256 (≈ 500 µM) | 1020 (≈ 2000 µM) | 512 (≈ 999 µM) | 1020 (≈ 2000 µM) | 512 (≈ 999 µM) | 512 (≈ 999 µM) | Nc1ccc(-c2nn3c(-c4ccc(S(=O)(=O)c5ccc(Br)cc5)cc4)nnc3s2)cc1 |
| 512 (≈ 973 µM) | 1020 (≈ 1950 µM) | 512 (≈ 973 µM) | 256 (≈ 486 µM) | 256 (≈ 486 µM) | 1020 (≈ 1950 µM) | 1020 (≈ 1950 µM) | 1020 (≈ 1950 µM) | 128 (≈ 243 µM) | 512 (≈ 973 µM) | NCc1ccc(-c2nn3c(-c4ccc(S(=O)(=O)c5ccc(Br)cc5)cc4)nnc3s2)cc1 |
| 256 (≈ 469 µM) | 128 (≈ 235 µM) | 64 (≈ 117 µM) | 256 (≈ 469 µM) | 128 (≈ 235 µM) | 256 (≈ 469 µM) | 128 (≈ 235 µM) | 128 (≈ 235 µM) | 128 (≈ 235 µM) | 512 (≈ 939 µM) | O=S(=O)(c1ccc(Br)cc1)c1ccc(-c2nnc3sc(-c4cc(O)c(O)c(O)c4)nn23)cc1 |
| 64 (≈ 105 µM) | 32 (≈ 52.4 µM) | 32 (≈ 52.4 µM) | 128 (≈ 210 µM) | 64 (≈ 105 µM) | 256 (≈ 419 µM) | 1020 (≈ 1680 µM) | 512 (≈ 838 µM) | 32 (≈ 52.4 µM) | 256 (≈ 419 µM) | O=S(=O)(c1ccc(Br)cc1)c1ccc(-c2nnc3sc(-c4ccc(Cl)c(Br)c4)nn23)cc1 |
| 256 (≈ 714 µM) | 512 (≈ 1430 µM) | 128 (≈ 357 µM) | 1020 (≈ 2860 µM) | 256 (≈ 714 µM) | 256 (≈ 714 µM) | 512 (≈ 1430 µM) | 128 (≈ 357 µM) | 512 (≈ 1430 µM) | 256 (≈ 714 µM) | O=S(=O)(c1ccccc1)c1ccc(-c2nnc3sc(O)nn23)cc1 |
| 256 (≈ 585 µM) | 128 (≈ 293 µM) | 64 (≈ 146 µM) | 1020 (≈ 2340 µM) | 256 (≈ 585 µM) | 256 (≈ 585 µM) | 256 (≈ 585 µM) | 256 (≈ 585 µM) | 256 (≈ 585 µM) | 256 (≈ 585 µM) | O=S(=O)(c1ccc(Br)cc1)c1ccc(-c2nnc3sc(O)nn23)cc1 |
| < 2 | < 2 | < 2 | < 2 | – | – | – | – | – | – | CC1(C)S[C@@H]2[C@H](NC(=O)[C@H](N)c3ccccc3)C(=O)N2[C@H]1C(=O)O [AMPICILLIN] |

| Structure (SMILES) | MIC (Staphylococcus aureus) [µg/mL] | MIC [1] [µg/mL] | MIC (Enterococcus faecalis) [µg/mL] | MIC (Bacillus cereus) [µg/mL] | MIC (Escherichia coli) [µg/mL] | MIC (Enterobacter cloacae) [µg/mL] | MIC (Citrobacter freundii) [µg/mL] | MIC (Acinetobacter baumannii) [µg/mL] | MIC (Pseudomonas aeruginosa) [µg/mL] | MIC (Candida albicans) [µg/mL] |
| --- | --- | --- | --- | --- | --- | --- | --- | --- | --- | --- |
| C[C@@H]1[C@H](O)[C@@H](C)/C=C/C=C/C=C/C=C/C=C/C=C/C=C/[C@H](O[C@@H]2O[C@H](C)[C@@H](O)[C@H](N)[C@@H]2O)C[C@@H]2O[C@](O)(C[C@@H](O)C[C@@H](O)[C@H](O)CC[C@@H](O)C[C@@H](O)CC(=O)O[C@H]1C)C[C@H](O)[C@H]2C(=O)O [AMPHOTERICIN B] | – | – | – | – | – | – | – | – | – | 2 (≈ 2.16 µM) |
| C[C@H]1[C@H](NC(=O)/C(=N\OC(C)(C)C(=O)O)c2csc(N)n2)C(=O)N1S(=O)(=O)O [AZTREONAM] | – | – | – | – | < 2 | – | < 2 | < 2 | 4 (≈ 9.19 µM) | – |
